Columns and labels:
Assay type in all cases: cell-based
[1] = test system: HEXIM1 expression in breast cancer MDA-MB-231 cells; test: HEXIM1 expression in MDA-MB-231 cells
Description: FIGS. 5(A-C) illustrate (A) the structure of HMBA analog, 4a1, (B) a graph showing HEXIM1 protein expression of breast cancer MCF7 cells treated with vehicle, HMBA, or 4a1 for 18 h, and (C) Western blot analyses of HEXIM1 targets relative to the loading control (GAPDH) of the treated cells.
MCF7, MDA-MB-231, and LNCaP cells were obtained from the American Tissue Culture Collection, and were maintained as previously described. Construction of expression vectors for control miRNA or HEXIM1 miRNAs were described previously. MCF7 or LNCaP cells were transfected with expression vectors containing either the HEXIM1 miRNA insert or a control miRNA insert as previously described. Following blasticidin selection, cells expressing the highest level of GFP were flow-sorted and expanded. MDA-MB-231 cells were transfected with control or expression vector for Flag-tagged HEXIM1 as previously described. The tamoxifen resistant cells line (TOTR) was generated by serial passage of parental MCF7 cells in growth media supplemented with 1 uM trans-hydroxytamoxifen.
Cell lysates were analyzed by western blot as previously described. Anti-HEXIM1 was generated in the Montano laboratory. Primary antibodies against p21 (C-19; cat# sc-397), cyclin D1 (HD11; cat# sc-246) and myc (9E10; cat# sc-40) were obtained from Santa Cruz Biotechnology. Anti-GAPDH was obtained from Millipore. […]

[2] = test system: recruitment of CDK9 to HEXIM1 gene in MCF7 cells; test: ChIP assay, CDK9 recruitment to HEXIM1 gene, MCF7 cells; conditions: 5 mM HMBA or 50 μM 4a1, 90 minutes
Description: FIGS. 6(A-B) illustrate graphs showing HEXIM1 graphs showing HMBA and 4a1 induced recruitment of CDK9 to HEXIM1 promoter in MCF7 and LNCaP cells treated with 5 mM HMBA or 50 μM 4a1 for 90 minutes.
ChIP assays were carried out as previously described. Anti-CDK9 antibody (D-7; cat# sc-13130) was obtained from Santa Cruz Biotechnology.
The induction of HEXIM1 by HMBA appears to involve the release of free P-TEFb from 7SK snRNP, and recruitment of P-TEFb to HEXIM1 gene. P-TEFb is a heterodimer between the cyclin-dependent kinase 9 (Cdk9) and its regulatory subunit Cyclin T1 (CycT1). We thus determined the regulation of the recruitment of CDK9 to the HEXIM1 coding sequence by HMBA and 4a1.

[3] = test system: MCF7 cells; test: Nile red staining of lipid droplets (differentiation marker), MCF7 cells; conditions: 72 hours
Description: (§1) FIGS. 8(A-B) illustrate images showing (A) MCF7 cells transfected with control or HEXIM1 siRNA or (B) MDA-MB-231 transfected with control or HEXIM1 expression vector treated with vehicle (DMSO), HMBA, or 4a1 for 72 hours. Lower panels show Western blot analyses of HEXIM1 expression in MDA-MB-231 cells transfected with control or expression vector for Flag-tagged HEXIM1.
(§2) Cells were stained with Nile red for lipid droplets (marker of cell differentiation). Briefly, the stock solution of Nile red 1 mg/ml in acetone was diluted in PBS (1:1000). The fixed cells (4% paraformaldehyde) were incubated with diluted Nile red for 5 minutes at room temperature, rinsed with PBS and observed for the presence of lipid droplets by confocal microscopy. Images were digitally captured using a Leica microscope (Leica Microsystems Inc, IL, USA).

[4] = test system: triple negative MDA-MB-231 breast cancer cells; test: Nile red staining of lipid droplets (differentiation marker), MDA-MB-231 cells; conditions: 72 hours
Description: as §1, §2

[5] = test system: tamoxifen resistant breast cancer line (MCF7/TOTR); test: MTT proliferation assay, sensitivity to trans-hydroxytamoxifen; conditions: 7 days, 5 mM HMBA or 50 μM 4a1
Description: FIGS. 9(A-B) illustrate a Western blot and plots showing HEXIM1 expression in MCF7 and MCF7(TOTR) cells in the presence of vehicle (DMSO), 5 mM HMBA or 50 μM 4a1.
MCF7, MDA-MB-231, and LNCaP cells were obtained from the American Tissue Culture Collection, and were maintained as previously described. Construction of expression vectors for control miRNA or HEXIM1 miRNAs were described previously. MCF7 or LNCaP cells were transfected with expression vectors containing either the HEXIM1 miRNA insert or a control miRNA insert as previously described. Following blasticidin selection, cells expressing the highest level of GFP were flow-sorted and expanded. […]
MCF7 cells were plated onto 96 well plates and treated with 17β-estradiol±trans-hydroxytamoxifen in the presence of DMSO (vehicle), HMBA or 4a1 for 7 days. Cell proliferation was assessed using the MTT based Cell Growth Determination Kit from Sigma-Aldrich according to the manufacturer's protocol.
We have reported that HEXIM1 is required for the ability of antiestrogens to inhibit the activity of the Estrogen Receptor, that loss of HEXIM1 results in agonistic activity of tamoxifen, and that recurrence after tamoxifen therapy can be correlated with loss of HEXIM1 expression in human breast tissue samples. Thus we determined if HMBA and 4a1 can enhance sensitivity to tamoxifen of a tamoxifen resistant breast cancer line (MCF7/TOTR). […]

[6] = test system: HEXIM1 targets in MCF7 cells; test: Western blot of HEXIM1 targets in MCF7 cells; conditions: 5 mM HMBA or 50 uM 4a1, 18 h, relative to GAPDH
Description: FIG. 10 illustrates a Western blot of MCF7 cells treated with vehicle, 5 mM HMBA, or 50 uM 4a1 for 18 h, and processes for analyses of HEXIM1 targets relative to GAPDH.
Cell lysates were analyzed by western blot as previously described. Anti-HEXIM1 was generated in the Montano laboratory. Primary antibodies against p21 (C-19; cat# sc-397), cyclin D1 (HD11; cat# sc-246) and myc (9E10; cat# sc-40) were obtained from Santa Cruz Biotechnology. Anti-GAPDH was obtained from Millipore. Anti-HIF-1α was obtained from Oxy-cell, Bioresearch).
To assess the clinical potential of HMBA and 4a1 we need to determine to what extent the targets of HMBA and 4a1 overlap with that of HEXIM1. We focused on direct targets of HEXIM1 that we have identified.

In the case of `COc1ccc(CC(=O)NCCCCCCNC(C)=O)cc1` [Compound 4a1], the “Potency of HEXIM1 induction compared to HMBA” value [1] is reported as “increased potency”, the “Recruitment of CDK9 to HEXIM1 gene” value [2] is reported as “induce recruitment of CDK9” and the “Cell differentiation (lipid droplets, Nile red)” value [3] is reported as “induced differentiation”. The “Cell differentiation (lipid droplets, Nile red)” value [4] was “induced differentiation”, the “Sensitivity of TOTR cells to trans-hydroxytamoxifen” value [5] was “enhanced the sensitivity” and the “Expression of proteins directly regulated by HEXIM1” value [6] was “regulated expression of proteins”.

Reference: patent US10959966B2, “Compositions and methods for modulating HEXM1 expression” (CASE WESTERN RESERVE UNIVERSITY, priority 2014, dated 2021)
